Experimental data published in patent US20210207188A1, “BETA-LACTAM COMPOUNDS AND METHODS OF USE THEREOF” (priority 2018, published 2021).

Tests used:
IMP-1 = biological target: T1, IMP-1 (Serratia marcescens, UniProt P52699); format: biochemical; conditions: IMP-1; for fluorescence signal over time: probe 2.0 μM (MCW-002 1.1 μM, MCW-011 0.5 μM), PBS
T1 construct: His tag; made in house; host or cells: Escherichia coli
Protocol: (§1) Recombinant his-tagged beta-lactamases, including NDM-1, IMP-1, KPC-2, VIM-2 and OXA-48 were overexpressed in Escherichia coli. The enzymes were purified using HisTrap Ni-NTA columns. AmpC and TEM were purchased from commercial sources.
(§2) The fluorescence-based activity assays were performed in phosphate-buffer saline. The concentration of some of the compounds were determined by boiling the compounds in PBS solution until fluorescence signal was saturated. The amount of released fluorophore was quantified via fluorescence spectroscopy by comparing to a corresponding calibration curve.

KPC-2 = biological target: T2, KPC-2 (Klebsiella pneumoniae, UniProt Q9F663); format: biochemical; conditions: for fluorescence signal over time: probe 2.0 μM (MCW-002 1.1 μM, MCW-011 0.5 μM), PBS
T2 construct: His tag; made in house; host or cells: Escherichia coli
Protocol: as §1, §2

NDM-1 = biological target: T3, NDM-1 (Klebsiella pneumoniae, UniProt C7C422); format: biochemical; conditions: for fluorescence signal over time: probe 2.0 μM (MCW-002 1.1 μM, MCW-011 0.5 μM), PBS
T3 construct: His tag; made in house; host or cells: Escherichia coli
Protocol: as §1, §2

AmpC = assay: Activity of beta-lactamases towards probes (fluorescence-based activity assay), AmpC; format: biochemical; conditions: probe 2.0 μM (MCW-002 1.1 μM, MCW-011 0.5 μM), PBS
Protocol: as §1, §2

TEM = biological target: T4, TEM (Escherichia coli, UniProt P62593); assay: Activity of beta-lactamases towards probes (fluorescence-based activity assay), TEM; format: biochemical; conditions: probe 2.0 μM (MCW-002 1.1 μM, MCW-011 0.5 μM), PBS
T4 construct: purchased
Protocol: as §1, §2

[1] = tested on: beta-lactamases, including NDM-1, IMP-1, VIM-2, KPC-2, OXA-48, AmpC, and TEM; assay: Fluorescence-based activity assay, whole panel of tested beta-lactamases; format: biochemical; conditions: for specificity among the tested beta-lactamases: conclusion from fluorescence signals; for changes in the fluorescence signal with the tested beta-lactamases: probe 2.0 μM, MCW-010 within 20 minutes
Protocol: as §1, §2
Among the tested beta-lactamases, NDM-1, IMP-1, VIM-2, KPC-2 and OXA-48 are carbapenemases, whereas AmpC and TEM are not. Nitrocefin was used as a control to test the activity of the beta-lactamases because it can be hydrolyzed by a wide range of beta-lactamases.

OXA-48 = biological target: T5, OXA-48 (Klebsiella pneumoniae, UniProt Q6XEC0); format: biochemical; conditions: for fluorescence signal over time: probe 2.0 μM (MCW-011 0.5 μM), PBS
T5 construct: His tag; made in house; host or cells: Escherichia coli
Protocol: as §1, §2

VIM-2 = biological target: T6, VIM-2 (Escherichia coli, UniProt Q5U7L7); format: biochemical; conditions: for fluorescence signal over time: probe 2.0 μM (MCW-011 0.5 μM), PBS
T6 construct: His tag; made in house; host or cells: Escherichia coli
Protocol: as §1, §2

[2] = tested on: clinical isolates (CPE, Carbapenemase Producing Enterobacteriaceae, and Non CPE strains); assay: Selectivity of probes with clinical isolates in lysis buffer (visible light and UV light); format: cell-based; conditions: probe 10 μM
Protocol: The selectivity of some probes were evaluated with clinical isolates. The carbapenemases presence in the bacteria (CPE, i.e., Carbapenemase Producing Enterobacteriaceae) were verified by PCR (Polymerase Chain Reaction). 1 μL loop-full of each test bacterium from overnight-cultured LB agar plate were added to 100 μL PBS buffer with 0.5% CHAPS. The bacteria were vortexed to give a homogenious suspension and incubated for 15 min. To each of the bacteria-lysis buffer mixture (20 μL) were added quick test reagents (Probes (Final concentration=10 μM), CarbaNP solution A and CarbaNP solution B). CarbaNP solutions A and B were freshly prepared according to CLSI protocol, where solution A contains 10 mM zinc sulphate and phenol red buffer at pH=7.8±0.1 and solution B was a mixture of solution A with 3 mg/mL imipenem.

SMILES	fluorescence signal over time (IMP-1)	fluorescence signal over time (KPC-2)	fluorescence signal over time (NDM-1)	fluorescence signal over time (AmpC)	fluorescence signal over time (TEM)	specificity among the tested beta-lactamases [1]	changes in the fluorescence signal with the tested beta-lactamases [1]	fluorescence signal over time (VIM-2)	other results
CC[Si](CC)(CC)O[C@H](C)[C@H]1C(=O)N2C(C(=O)O)=C(/C=C/COc3ccc(COc4ccc5nc6ccc(=O)cc-6oc5c4)cc3OC)C[C@H]12 [MCW-002, (5R,6S)-3-((E)-3-(2-methoxy-4-(((3-oxo-3H-phenoxazin-7-yl)oxy)methyl)phenoxy)prop-1-en-1-yl)-7-oxo-6-((R)-1-((triethylsilyl)oxy)ethyl)-1-azabicyclo[3.2.0]hept-2-ene-2-carboxylic acid]	pronounced increase in the fluorescent signal	minimal changes in the fluorescent signal	pronounced increase in the fluorescent signal	minimal changes in the fluorescent signal	minimal changes in the fluorescent signal	specific for NDM-1 and IMP-1, especially NDM-1			relative rate of hydrolysis reaction (IMP-1): slower compared to the reaction with NDM-1
COC(=O)C1=C(/C=C/COc2ccc(COc3ccc4nc5ccc(=O)cc-5oc4c3)cc2OC)C[C@@H]2[C@@H]([C@@H](C)O)C(=O)N12 [MCW-003, Methyl (5R,6S)-6-((R)-1-hydroxyethyl)-3-((E)-3-(2-methoxy-4-(((3-oxo-3H-phenoxazin-7-yl)oxy)methyl)phenoxy)prop-1-en-1-yl)-7-oxo-1-azabicyclo[3.2.0]hept-2-ene-2-carboxylate]							unreactive to the tested beta-lactamases		
COc1ccc(-c2c3ccc(=O)cc-3oc3cc(OCc4ccc(OC/C=C/C5=C(C(=O)O)N6C(=O)[C@H]([C@@H](C)O)[C@H]6C5)c(OC)c4)ccc23)c(C)c1 [MCW-004, (5R,6S)-6-((R)-1-hydroxyethyl)-3-((E)-3-(2-methoxy-4-(((9-(4-methoxy-2-methylphenyl)-3-oxo-3H-xanthen-6-yl)oxy)methyl)phenoxy)prop-1-en-1-yl)-7-oxo-1-azabicyclo[3.2.0]hept-2-ene-2-carboxylic acid]									3S/k (detection limit of the probe towards the carbapenemase) (IMP-1): 0.328 pM; Kcat (IMP-1; Michaelis-Menten kinetics): 47.3 ± 3.34 s⁻¹; Km (IMP-1; Michaelis-Menten kinetics): 1.74 ± 0.29 µM; 3S/k (detection limit of the probe towards the carbapenemase) (KPC-2): 5.28 pM; Kcat (KPC-2; Michaelis-Menten kinetics): 2.36 ± 0.22 s⁻¹; Km (KPC-2; Michaelis-Menten kinetics): 3.41 ± 0.59 µM; 3S/k (detection limit of the probe towards the carbapenemase) (NDM-1): 0.546 pM; Kcat (NDM-1; Michaelis-Menten kinetics): 23.5 ± 0.98 s⁻¹; Km (NDM-1; Michaelis-Menten kinetics): 1.57 ± 0.16 µM; 3S/k (detection limit of the probe towards the carbapenemase) (OXA-48): 24.9 pM; Kcat (OXA-48; Michaelis-Menten kinetics): 10.2 ± 0.74 s⁻¹; Km (OXA-48; Michaelis-Menten kinetics): 1.09 ± 0.12 µM; 3S/k (detection limit of the probe towards the carbapenemase) (VIM-2): 5.37 pM; Kcat (VIM-2; Michaelis-Menten kinetics): 2.28 ± 0.07 s⁻¹; Km (VIM-2; Michaelis-Menten kinetics): 1.88 ± 0.13 µM; signal with panel of clinical isolates ([2]; incubated for 15 min): observable fluorogenic signal in CPE strains but not the Non CPE strains; signal with panel of clinical isolates ([2]; incubated for 120 min): observable fluorogenic signal in CPE strains but not the Non CPE strains
COc1cc(COc2ccc3nc4ccc(=O)cc-4oc3c2)ccc1OC/C=C/C1=C(C(=O)N(C)O)N2C(=O)[C@H]([C@@H](C)O)[C@H]2C1 [MCW-006, (5R,6S)-N-hydroxy-6-((R)-1-hydroxyethyl)-3-((E)-3-(2-methoxy-4-(((3-oxo-3H-phenoxazin-7-yl)oxy)methyl)phenoxy)prop-1-en-1-yl)-N-methyl-7-oxo-1-azabicyclo[3.2.0]hept-2-ene-2-carboxamide]							unreactive to the tested beta-lactamases		
C[C@@H](O)[C@H]1C(=O)N2C(C(=O)O)=C(c3ccc(COc4ccc5nc6ccc(=O)cc-6oc5c4)cc3)C[C@H]12 [MCW-008, (5R,6S)-6-((R)-1-hydroxyethyl)-7-oxo-3-(4-(((3-oxo-3H-phenoxazin-7-yl)oxy)methyl)phenyl)-1-azabicyclo[3.2.0]hept-2-ene-2-carboxylic acid]	increase in the fluorescent signal	increase in the fluorescent signal	increase in the fluorescent signal	minimal changes in the fluorescent signal	minimal changes in the fluorescent signal	specific for carbapenemases		increase in the fluorescent signal	fluorescence signal over time (OXA-48): increase in the fluorescent signal
COc1ccc(-c2c3ccc(=O)cc-3oc3cc(OCc4ccc(C5=C(C(=O)O)N6C(=O)[C@H]([C@@H](C)O)[C@H]6C5)cc4)ccc23)c(C)c1 [MCW-009, (5R,6S)-6-((R)-1-hydroxyethyl)-3-(4-(((9-(4-methoxy-2-methylphenyl)-3-oxo-3H-xanthen-6-yl)oxy)methyl)phenyl)-7-oxo-1-azabicyclo[3.2.0]hept-2-ene-2-carboxylic acid]	increase in the fluorescent signal	increase in the fluorescent signal	increase in the fluorescent signal					increase in the fluorescent signal	time until hydrolysis reaction complete (fluorescent signal plateaued) (IMP-1; probe 2.0 μM): > 20 min; time until hydrolysis reaction complete (fluorescent signal plateaued) (KPC-2; probe 2.0 μM): > 20 min; time until hydrolysis reaction complete (fluorescent signal plateaued) (NDM-1; probe 2.0 μM): > 20 min; time until hydrolysis reaction complete (fluorescent signal plateaued) (VIM-2; probe 2.0 μM): > 20 min
C[C@@H](O)[C@H]1C(=O)N2C(C(=O)O)=C(c3ccc(COc4ccc5nc6ccc(=O)cc-6oc5c4)cc3[N+](=O)[O-])C[C@H]12 [MCW-010, (5R,6S)-6-((R)-1-hydroxyethyl)-3-(2-nitro-4-(((3-oxo-3H-phenoxazin-7-yl)oxy)methyl)phenyl)-7-oxo-1-azabicyclo[3.2.0]hept-2-ene-2-carboxylic acid]							did not exhibited changes in the fluorescence signal		
COc1ccc(-c2c3ccc(=O)cc-3oc3cc(OCc4ccc(OC/C=C/C5=C(C(=O)O)N6C(=O)[C@H]([C@@H](C)O)[C@H]6S5)c(OC)c4)ccc23)c(C)c1 [MCW-011, (5R,6S)-6-((R)-1-hydroxyethyl)-3-((E)-3-(2-methoxy-4-(((9-(4-methoxy-2-methylphenyl)-3-oxo-3H-xanthen-6-yl)oxy)methyl)phenoxy)prop-1-en-1-yl)-7-oxo-4-thia-1-azabicyclo[3.2.0]hept-2-ene-2-carboxylic acid]	increase in the fluorescent signal	increase in the fluorescent signal	increase in the fluorescent signal	minimal changes in the fluorescent signal	minimal changes in the fluorescent signal	specific for carbapenemases		increase in the fluorescent signal	fluorescence signal over time (OXA-48): increase in the fluorescent signal
